Measurements taken from patent US4469691A, “Hexamethylenetetramine-N-acetyl-thiazolidine-4-carboxylate, a process for its preparation and a pharmaceutical composition containing it” (Ausonia Farmaceutici s.r.l., priority 1982, dated 1984).
Read-outs that look alike come from different tables or passages of the source.

Assays:
[1] = tested on: male Wistar rats; experiment: Mucosecretolytic activity in male Wistar rats (method of H. Mawatari); format: in vivo, rat; conditions: for % increase of sodium fluorescein compared with controls: 250 mg/Kg p.o., 10 animals; for Mucosecretolytic activity (in words): oral, rats
Protocol: Mucosecretolytic activity was determined in male Wistar rats after AFP 829 administration given via the oral route. The method described by H. Mawatari was used for the determination [H. Mawatari, Kagoshima Daiagaku, Igaku Zasshi 27, 561 (1976)]. A drug of known activity--carboxymethylcysteine--was used as the reference standard.

[2] = Acute oral toxicity in Swiss mice (Litchfield and Wilcoxon); format: in vivo; conditions: in vivo, mouse
[3] = Acute oral toxicity in Wistar rats (Litchfield and Wilcoxon); format: in vivo; conditions: in vivo, rat
[4] = tested on: Salmonella spp; experiment: In vitro antibacterial activity, M.I.C., Salmonella spp; format: cell-based; conditions: of 10 strains, pH 5.5
Protocol: Salmonella spp (10 strains)
(§1) As culture medium, Mueller Hinton Agar at pH 5.5 was used. The compounds under examination were dissolved in and diluted by sterile saline; 1 ml of the diluted solutions thus obtained was poured in Petri's dishes and 19 ml of Mueller Hinton Agar were subsequently added thereto.
(§2) The inoculation of bacteria was performed using a multi point inoculator and a 18 hour growth broth culture of each of the strains under examination. With this method the bacterial inoculum is equal to about 10^5 colony-forming units (CFU) per point. Reading of the results was performed after cultivating the plates for 18 hours at 37° C.

[5] = tested on: Pseudomonas aeruginosa; experiment: In vitro antibacterial activity, M.I.C., Pseudomonas aeruginosa; format: cell-based; conditions: 62.5 mcg/ml (EMTA; AFP 829 equimolar); of 10 strains; pH 5.5
Protocol: as §1, §2

[6] = tested on: Proteus spp; experiment: In vitro antibacterial activity, M.I.C., Proteus spp; format: cell-based; conditions: of 10 strains, pH 5.5
Protocol: Proteus spp (10 strains)
as §1, §2

[7] = tested on: E. coli; experiment: In vitro antibacterial activity, M.I.C., E. coli; format: cell-based; conditions: of 10 strains, pH 5.5
Protocol: as §1, §2

[8] = tested on: Klebsiella spp; experiment: In vitro antibacterial activity, M.I.C., Klebsiella spp; format: cell-based; conditions: of 7 strains, pH 5.5
Protocol: Klebsiella spp (7 strains)
as §1, §2

[9] = tested on: Serratia spp; experiment: In vitro antibacterial activity, M.I.C., Serratia spp; format: cell-based; conditions: of 5 strains, pH 5.5
Protocol: Serratia spp (5 strains)
as §1, §2

[10] = tested on: Citrobacter spp; experiment: In vitro antibacterial activity, M.I.C., Citrobacter spp; format: cell-based; conditions: of 3 strains, pH 5.5
Protocol: Citrobacter spp (3 strains).
as §1, §2

[11] = tested on: Staphylococcus aureus; experiment: In vitro antibacterial activity, M.I.C., Staphylococcus aureus; format: cell-based; conditions: of 15 strains, pH 5.5
Protocol: as §1, §2

[12] = tested on: Streptococcus; experiment: In vitro antibacterial activity, M.I.C., Streptococcus (pyogenes); format: cell-based; conditions: of 15 strains, pH 5.5
Protocol: as §1, §2

[13] = tested on: Enterococcus; experiment: In vitro antibacterial activity, M.I.C., Enterococcus (Streptococcus faecalis); format: cell-based; conditions: of 5 strains, pH 5.5
Protocol: as §1, §2

[14] = tested on: 90 strains of different Gram-positive and Gram-negative bacterial species; experiment: In vitro antibacterial activity, all 90 strains; format: cell-based, Gram-positive and Gram-negative bacteria; conditions: for Antibacterial activity (in words): all microorganisms, AFP 829 versus EMTA
Protocol: as §1, §2

[15] = in vivo; cited from earlier work
[16] = Pharmacokinetics in laboratory animals after oral administration
[17] = tested on: Swiss mice; experiment: Acute oral toxicity in Swiss mice (Litchfield and Wilcoxon); format: in vivo; conditions: mouse
[18] = tested on: Wistar rats; experiment: Acute oral toxicity in Wistar rats (Litchfield and Wilcoxon); format: in vivo; conditions: rat
[19] = tested on: strain of Ps. aeruginosa; design: species or system Sprague Dawley rats; Ps. aeruginosa; conditions: rat, in vivo, ip
Protocol: Each group of animals received the substances i.p. in […] of sterile saline; the animals were placed in metabolic cages with free access to water. Urine samples were collected at the following intervals:
1 ml of nutrient broth at pH 5.5, containing approximately […] colony-forming units of a strain of Ps. aeruginosa sensitive to the action of both substances, was added to 1 ml of the urine or the standard solution of the two drugs dissolved in distilled water.
Standard and urine samples were sequentially diluted twofold by means of the same broth containing the microorganisms until a 1:2048 dilution was achieved.
After overnight incubation at 37° C. the maximum dilution (limit dilution) of the substances or samples inhibiting bacterial growth was determined.
Therefore the concentration of the substances in the urine samples was determined using the formula below: [formula]

[20] = tested on: liver affections; experiment: Protective activity against liver affections
[21] = in vivo, po
[22] = 62.5 mcg/ml (EMTA; AFP 829 equimolar)
[23] = 125 mcg/ml (EMTA; AFP 829 equimolar)
[24] = 250 mcg/ml (EMTA; AFP 829 equimolar)
[25] = 15.6 mcg/ml (EMTA; AFP 829 equimolar)
[26] = 31.2 mcg/ml (EMTA; AFP 829 equimolar)
[27] = listed as hexamethylenetetramine-N-acetyl-thiazolidine-4-carboxylate (I)

| Compound | % increase of sodium fluorescein compared with controls [1] [%] | LD50 [2] [mg/kg] | LD50 [3] [mg/kg] | M.I.C., cumulative number of strains inhibited [4, 22] [strains] | M.I.C., cumulative number of strains inhibited [5] [strains] | M.I.C., cumulative number of strains inhibited [6, 22] [strains] | M.I.C., cumulative number of strains inhibited [7, 22] [strains] | M.I.C., cumulative number of strains inhibited [8, 22] [strains] | M.I.C., cumulative number of strains inhibited [9, 22] [strains] | M.I.C., cumulative number of strains inhibited [9, 23] [strains] | M.I.C., cumulative number of strains inhibited [10, 22] [strains] | M.I.C., cumulative number of strains inhibited [11, 22] [strains] | M.I.C., cumulative number of strains inhibited [11, 23] [strains] | M.I.C., cumulative number of strains inhibited [12, 25] [strains] | M.I.C., cumulative number of strains inhibited [12, 22] [strains] | M.I.C., cumulative number of strains inhibited [12, 23] [strains] | M.I.C., cumulative number of strains inhibited [13, 22] [strains] | Antibacterial activity (in words) [14] | other results |
| --- | --- | --- | --- | --- | --- | --- | --- | --- | --- | --- | --- | --- | --- | --- | --- | --- | --- | --- | --- |
| carboxymethylcysteine | 33.4 | – | – | – | – | – | – | – | – | – | – | – | – | – | – | – | – | – | – |
| C1N2CN3CN1CN(C2)C3 [EMTA, hexamethylenetetramine] | – | 1500 | 1050 | 9 | 10 | 10 | 8 | 6 | 4 | 5 | 1 | 10 | 14 | 7 | 11 | 13 | 4 | slightly less active | M.I.C., cumulative number of strains inhibited [4, 23]: 10 strains; M.I.C., cumulative number of strains inhibited [7, 23]: 10 strains; M.I.C., cumulative number of strains inhibited [8, 23]: 7 strains; M.I.C., cumulative number of strains inhibited [10, 23]: 3 strains; M.I.C., cumulative number of strains inhibited [11, 24]: 15 strains; M.I.C., cumulative number of strains inhibited [12, 24]: 14 strains; M.I.C., cumulative number of strains inhibited ([12]; 500 mcg/ml (EMTA; AFP 829 equimolar)): 15 strains; M.I.C., cumulative number of strains inhibited [13, 23]: 5 strains; Converted to formaldehyde in acid urine [15]: about 15%; Eliminated unchanged in the urine [15]: 90%; Occurrence in urine (in words) [16]: selectively occur in the urine along with the active metabolites thereof |
| O=C(O)C1CSCN1 (centres unmarked) [TCA, thiazolidine-4-carboxylic acid] | – | 400 | 800 | – | – | – | – | – | – | – | – | – | – | – | – | – | – | – | – |
| C1N2CN3CN1CN(C2)C3.CC(=O)N1CSCC1C(=O)O (centres unmarked) [AFP 829, hexamethylenetetramine-N-acetyl-thiazolidine-4-carboxylate] | 96.1 | – | – | 10 | 10 | 10 | 10 | 7 | 4 | 5 | 3 | 13 | 15 | 5 | 12 | 15 | 5 | active in comparison with all of the microorganisms used | LD50 [17]: 1350 mg/kg; LD50 [18]: 2100 mg/kg; M.I.C., cumulative number of strains inhibited [4, 26]: 1 strains; M.I.C., cumulative number of strains inhibited [6, 26]: 3 strains; M.I.C., cumulative number of strains inhibited [13, 26]: 1 strains; M.I.C.: no microorganism resistant to concentrations higher than ([14]; all microorganisms used, pH 5.5): ≤ 125 µg/mL; Antibacterial activity (in words) [14, 27]: higher antibacterial activity than hexamethylenetetramine; Concentration in urine ([19]; 1.5 h): 2000 mcg/ml of urine; Concentration in urine ([19]; 2.5 h): 4000 mcg/ml of urine; Concentration in urine ([19]; 4.5 h): 4000 mcg/ml of urine; Concentration in urine ([19]; 6.5 h): 1000 mcg/ml of urine; Mucosecretolytic activity (in words) [1]: powerful mucosecretolytic activity, markedly higher than the standard substance; Mucosecretolytic activity (in words) [1, 27]: remarkable mucosecretolytic properties; Protective activity against liver affections (in words) [20]: protective activity against liver affections; Occurrence in urine (in words) [21]: selectively occur in the urine along with the active metabolites thereof |
